Results taken from patent US11229618B2 (Amarin Pharmaceuticals Ireland Limited, priority 2012, dated 2022).

Experiment: AAMI 6-week study: essential fatty acid parameters in RBC (gas chromatography)
Assay type: in vivo, human
Details: for AA RBC Mean change from Baseline / DHA RBC Mean change from Baseline / AA RBC 1 or 2 g versus 4 g LS Mean / DHA RBC 1 or 2 g versus 4 g LS Mean: AAMI; for AA RBC Mean change from Baseline / DHA RBC Mean change from Baseline: mean (SD); for DGLA 1 or 2 g versus 4 g, LS Mean / DPAn-3 1 or 2 g versus 4 g, LS Mean / EPA/AA 1 or 2 g versus 4 g, LS Mean / DGLA Mean change from Baseline, Mean (SD) / DPAn-3 Mean change from Baseline, Mean (SD) / EPA/AA Mean change from Baseline, Mean (SD) / DGLA Baseline Mean (SD) / DPAn-3 Baseline Mean (SD) / EPA/AA Baseline Mean (SD): RBC
Protocol: A single-center, 6-week, double-blind, randomizes, parallel-group, placebo-controlled, dose-ranging pilot study was performed to evaluate the efficacy, tolerability, and safety of >96% ethyl-EPA in subjects with subjective and objective memory impairment according to generally accepted criteria for Age-Associated Memory Impairment (“AAMI”). The primary objective of the study was to determine the effect of >96% ethyl-EPA 1 g, 2 g, and 4 g daily, compared to placebo, on cognitive performance in subjects with AAMI.
Ninety-four subjects were randomized into one of six groups: 1 g E-EPA daily (n=23), 2 g E-EPA daily (n=24), 4 g E-EPA daily (n=24), 1 g placebo daily (n=7), 2 g placebo daily (n=8), and 4 g placebo daily (n=8). E-EPA was provided as 500 mg soft gel capsules containing>96% E-EPA and 0.2% dl-α-tocopherol as an antioxidant. Placebo capsules contained 467 mg of liquid paraffin and 0.2% dl-α-tocopherol. Ninety-one subjects completed the study. Two subjects in the 2 g E-EPA group and one subject in the 2 g placebo group discontinued the study.
Blood samples (10 mL) were collected at Visit 1 (screening) and at Visits 4, 5 and 6. Analysis was performed by MSR Lipid Analysis, Scottish Crop Research Institute, Dundee, UK. The screening sample acted as baseline for the EFA measurements. Lipid was extracted from plasma, serum and RBC suspensions and converted into fatty acid methyl esters which were analyzed by gas chromatography to give fatty acid profiles as micrograms fatty acid per gram of sample (μgFA/g) and normalized area percent.
RBC and plasma EFA data were collected at baseline, Day 14, 28 and 42 and summarized by visit for each treatment group. Change from baseline and percent change from baseline were also summarized. ANCOVA comparison of ethyl-EPA dose groups and ethyl-EPA versus placebo was performed.

[1] = Ethyl-EPA 1 g versus 4 g, p-value <0.001

Structure (SMILES): CC/C=C\C/C=C\C/C=C\C/C=C\C/C=C\CCCC(=O)OCC [IPE, all-cis eicosa-5,8,11,14,17-pentaenoic acid ethyl ester]
- AA RBC Mean change from Baseline (1 g daily, Day 14): −8.1 (21.95) μg/g
- DHA RBC Mean change from Baseline (1 g daily, Day 14): −4.6 (9.76) μg/g
- AA RBC Mean change from Baseline (1 g daily, Day 28): −17.0 (20.69) μg/g
- DHA RBC Mean change from Baseline (1 g daily, Day 28): −6.4 (11.57) μg/g
- AA RBC Mean change from Baseline (1 g daily, Day 42): −14.2 (27.69) μg/g
- DHA RBC Mean change from Baseline (1 g daily, Day 42): −7.0 (12.20) μg/g
- AA RBC 1 or 2 g versus 4 g LS Mean (1 g versus 4 g): 8.4 µg/g
- DHA RBC 1 or 2 g versus 4 g LS Mean (1 g versus 4 g): 1.0 µg/g
- AA RBC Mean change from Baseline (2 g daily, Day 14): −3.1 (25.84) μg/g
- DHA RBC Mean change from Baseline (2 g daily, Day 14): −2.0 (9.46) μg/g
- AA RBC Mean change from Baseline (2 g daily, Day 28): −14.1 (26.89) μg/g
- DHA RBC Mean change from Baseline (2 g daily, Day 28): −6.2 (9.34) μg/g
- AA RBC Mean change from Baseline (2 g daily, Day 42): −18.8 (25.62) μg/g
- DHA RBC Mean change from Baseline (2 g daily, Day 42): −6.3 (9.42) μg/g
- AA RBC 1 or 2 g versus 4 g LS Mean (2 g versus 4 g): 9.8 µg/g
- DHA RBC 1 or 2 g versus 4 g LS Mean (2 g versus 4 g): 1.0 µg/g
- AA RBC Mean change from Baseline (4 g daily, Day 14): −15.7 (26.76) μg/g
- DHA RBC Mean change from Baseline (4 g daily, Day 14): −6.9 (9.13) μg/g
- AA RBC Mean change from Baseline (4 g daily, Day 28): −22.8 (29.56) μg/g
- DHA RBC Mean change from Baseline (4 g daily, Day 28): −8.7 (11.63) μg/g
- AA RBC Mean change from Baseline (4 g daily, Day 42): −34.4 (31.44) μg/g
- DHA RBC Mean change from Baseline (4 g daily, Day 42): −13.8 (13.76) μg/g
- DGLA 1 or 2 g versus 4 g, LS Mean (Ethyl-EPA 1 g versus 4 g, p-value 0.027): 1.5 µg/g
- DPAn-3 1 or 2 g versus 4 g, LS Mean [1]: -6.2 µg/g
- EPA/AA 1 or 2 g versus 4 g, LS Mean [1]: −0.18
- DGLA Mean change from Baseline, Mean (SD) (Ethyl-EPA 1 g, Day 14): −2.7 (3.82) μg/g
- DPAn-3 Mean change from Baseline, Mean (SD) (Ethyl-EPA 1 g, Day 14): 0.9 (5.03) μg/g
- EPA/AA Mean change from Baseline, Mean (SD) (Ethyl-EPA 1 g, Day 14): 0.1 (0.04)
- DGLA Mean change from Baseline, Mean (SD) (Ethyl-EPA 1 g, Day 28): −3.8 (3.31) μg/g
- DPAn-3 Mean change from Baseline, Mean (SD) (Ethyl-EPA 1 g, Day 28): 3.3 (5.42) μg/g
- EPA/AA Mean change from Baseline, Mean (SD) (Ethyl-EPA 1 g, Day 28): 0.1 (0.05)
- DGLA Mean change from Baseline, Mean (SD) (Ethyl-EPA 1 g, Day 42): −3.5 (4.51) μg/g
- DPAn-3 Mean change from Baseline, Mean (SD) (Ethyl-EPA 1 g, Day 42): 6.5 (6.19) μg/g
- EPA/AA Mean change from Baseline, Mean (SD) (Ethyl-EPA 1 g, Day 42): 0.1 (0.06)
- DGLA Baseline Mean (SD) (Ethyl-EPA 1 g): 23.0 (5.19) μg/g
- DPAn-3 Baseline Mean (SD) (Ethyl-EPA 1 g): 34.1 (5.43) μg/g
- EPA/AA Baseline Mean (SD) (Ethyl-EPA 1 g): 0.1 (0.07)
- DPAn-3 1 or 2 g versus 4 g, LS Mean (Ethyl-EPA 2 g versus 4 g, p-value 0.002): -2.5 µg/g
- DGLA 1 or 2 g versus 4 g, LS Mean (Ethyl-EPA 2 g versus 4 g, p-value 0.032): 1.5 µg/g
- EPA/AA 1 or 2 g versus 4 g, LS Mean (Ethyl-EPA 2 g versus 4 g, p-value <0.001): −0.11
- DGLA Mean change from Baseline, Mean (SD) (Ethyl-EPA 2 g, Day 14): −2.6 (3.54) μg/g
- DPAn-3 Mean change from Baseline, Mean (SD) (Ethyl-EPA 2 g, Day 14): 5.6 (6.28) μg/g
- EPA/AA Mean change from Baseline, Mean (SD) (Ethyl-EPA 2 g, Day 14): 0.2 (0.04)
- DGLA Mean change from Baseline, Mean (SD) (Ethyl-EPA 2 g, Day 28): −4.5 (3.58) μg/g
- DPAn-3 Mean change from Baseline, Mean (SD) (Ethyl-EPA 2 g, Day 28): 9.4 (6.74) μg/g
- EPA/AA Mean change from Baseline, Mean (SD) (Ethyl-EPA 2 g, Day 28): 0.02 (0.06)
- DGLA Mean change from Baseline, Mean (SD) (Ethyl-EPA 2 g, Day 42): −5.3 (3.65) μg/g
- DPAn-3 Mean change from Baseline, Mean (SD) (Ethyl-EPA 2 g, Day 42): 13.2 (7.23) μg/g
- EPA/AA Mean change from Baseline, Mean (SD) (Ethyl-EPA 2 g, Day 42): 0.3 (0.06)
- DGLA Baseline Mean (SD) (Ethyl-EPA 2 g): 23.0 (5.76) μg/g
- DPAn-3 Baseline Mean (SD) (Ethyl-EPA 2 g): 33.2 (4.51) μg/g
- EPA/AA Baseline Mean (SD) (Ethyl-EPA 2 g): 0.1 (0.06)
- DGLA Mean change from Baseline, Mean (SD) (Ethyl-EPA 4 g, Day 14): −5.3 (4.10) μg/g
- DPAn-3 Mean change from Baseline, Mean (SD) (Ethyl-EPA 4 g, Day 14): 5.4 (5.38) μg/g
- EPA/AA Mean change from Baseline, Mean (SD) (Ethyl-EPA 4 g, Day 14): 0.3 (0.07)
- DGLA Mean change from Baseline, Mean (SD) (Ethyl-EPA 4 g, Day 28): −7.1 (4.63) μg/g
- DPAn-3 Mean change from Baseline, Mean (SD) (Ethyl-EPA 4 g, Day 28): 12.4 (6.98) μg/g
- EPA/AA Mean change from Baseline, Mean (SD) (Ethyl-EPA 4 g, Day 28): 0.4 (0.11)
- DGLA Mean change from Baseline, Mean (SD) (Ethyl-EPA 4 g, Day 42): −8.0 (4.98) μg/g
- DPAn-3 Mean change from Baseline, Mean (SD) (Ethyl-EPA 4 g, Day 42): 16.2 (10.07) μg/g
- EPA/AA Mean change from Baseline, Mean (SD) (Ethyl-EPA 4 g, Day 42): 0.4 (0.14)
- DGLA Baseline Mean (SD) (Ethyl-EPA 4 g): 24.0 (5.77) μg/g
- DPAn-3 Baseline Mean (SD) (Ethyl-EPA 4 g): 34.5 (4.34) μg/g
